Data: PMC1892040 (PLoS Medicine, 2007)
Read-outs that look alike come from different tables or passages of the source.

Experiments:
[1] = molecular target: T1, S. mansoni TGR (Schistosoma mansoni, UniProt Q962Y6); assay: Kinetic analysis of recombinant S. mansoni TGR with substrates
T1 sequence (Q962Y6 1-598): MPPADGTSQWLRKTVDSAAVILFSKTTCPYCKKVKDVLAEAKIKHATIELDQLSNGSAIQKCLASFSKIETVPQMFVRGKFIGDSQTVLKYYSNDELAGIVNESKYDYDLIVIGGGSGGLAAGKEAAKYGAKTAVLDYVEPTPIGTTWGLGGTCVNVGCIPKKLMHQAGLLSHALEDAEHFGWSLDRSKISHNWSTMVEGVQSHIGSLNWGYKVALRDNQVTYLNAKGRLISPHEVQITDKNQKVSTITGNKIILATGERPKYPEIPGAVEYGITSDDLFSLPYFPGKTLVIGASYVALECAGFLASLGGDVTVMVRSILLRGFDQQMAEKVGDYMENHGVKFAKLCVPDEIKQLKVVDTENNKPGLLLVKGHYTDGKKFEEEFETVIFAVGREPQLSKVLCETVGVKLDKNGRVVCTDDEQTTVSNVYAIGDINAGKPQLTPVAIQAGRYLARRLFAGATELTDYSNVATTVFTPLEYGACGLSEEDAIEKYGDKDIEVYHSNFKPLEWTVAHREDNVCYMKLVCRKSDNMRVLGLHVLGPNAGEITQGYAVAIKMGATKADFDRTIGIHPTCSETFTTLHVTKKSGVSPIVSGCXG
Description: Kinetic parameters were determined using Lineweaver–Burk plots using KaleidaGraph 4 (Synergy Software, http://www.synergy.com) least squares best fit of data and varying concentrations of one substrate while maintaining the concentration of other substrates. […] All assays were done in triplicate.

[2] = molecular target: T2, Human GR (Homo sapiens, UniProt P00390); conditions: read-out: Apparent Km, Human GR; cited from earlier work
T2 sequence (P00390 44-522): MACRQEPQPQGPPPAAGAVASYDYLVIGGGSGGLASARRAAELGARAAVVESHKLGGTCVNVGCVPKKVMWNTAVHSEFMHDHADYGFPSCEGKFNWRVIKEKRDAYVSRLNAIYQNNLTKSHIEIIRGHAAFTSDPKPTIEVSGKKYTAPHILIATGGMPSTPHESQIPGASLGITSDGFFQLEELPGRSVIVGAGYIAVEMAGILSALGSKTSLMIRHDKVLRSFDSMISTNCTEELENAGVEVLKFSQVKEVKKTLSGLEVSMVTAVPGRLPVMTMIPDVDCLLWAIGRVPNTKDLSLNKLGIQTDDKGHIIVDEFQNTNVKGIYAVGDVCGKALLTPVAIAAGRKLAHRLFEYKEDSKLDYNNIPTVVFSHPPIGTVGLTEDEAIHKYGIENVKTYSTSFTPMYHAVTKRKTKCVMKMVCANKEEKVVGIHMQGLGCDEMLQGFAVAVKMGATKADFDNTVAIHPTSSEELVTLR

[3] = test system: Human TGR; conditions: read-out: Apparent Km, Human TGR; cited from earlier work
[4] = test system: Human TrxR1; conditions: read-out: Apparent Km, Human TrxR1; cited from earlier work
[5] = molecular target: phosphofructokinase (PFK); design: method as in PMID 8898332; conditions: cited from earlier work
[6] = test system: myeloma cell line SP2/0; assay: Cytotoxicity assay (sulforhodamine B); format: cell-based; conditions: adult worms 24 h; myeloma cells 24 h and 5 d
Description: Cytotoxicity assays were performed using sulforhodamine B to determine cellular protein content as described. Briefly, myeloma cell line SP2/0 was cultured in 96-well microtiter plates containing 0.2 ml of RPMI-1640 per well at a cell density of 1,000 per well at 37 °C in 5% CO2. Cells were treated with drug concentrations (or drug carrier alone) and exposure times as indicated. After treatment, cells were fixed with 10% TCA at 4 °C for 1 h. Fixed cells were rinsed to remove fixative and then stained in 0.4% (w/v) sulforhodamine B (Sigma) in 1% acetic acid for 30 min. After washing with 1% acetic acid and dye extraction in 10 mM Tris (pH 10.5), plates were read at A564nm. The A564nm of drug-treated cells was compared to carrier-only-treated cells. The treatments were done in triplicate and the experiments repeated three times.

[7] = molecular target: T1, S. mansoni TGR; format: biochemical; design: The entire TGR ORF plus the SECIS element was subcloned into pET-24a; made in house; host or cells: Escherichia coli BL21(DE3) with pSUABC; conditions: read-out: IC50 S. mansoni TGR, DTNB (TrxR activity)
Description: (§1) Assays were performed at 25 °C in 0.1 M potassium phosphate (pH 7.4), 10 mM EDTA using 100 μM NADPH unless otherwise stated.
(§2) Initial inhibitor screens were conducted in 200 μl volumes in 96 well plates with 50 μM inhibitor, 100 μM NADPH, and 5 nM TGR in 0.1 M potassium phosphate (pH 7.4), 10 mM EDTA with a preincubation step of 15 min. […] All assays were done in triplicate.

[8] = molecular target: T1, S. mansoni TGR; format: biochemical; design: The entire TGR ORF plus the SECIS element was subcloned into pET-24a; made in house; host or cells: Escherichia coli BL21(DE3) with pSUABC; conditions: read-out: IC50 S. mansoni TGR, GSSG (GR activity)
Description: as §1, §2

[9] = molecular target: T1, S. mansoni TGR
Description: as §1, §2

[10] = molecular target: T1, S. mansoni TGR; assay: biochemical; format: biochemical; design: The entire TGR ORF plus the SECIS element was subcloned into pET-24a; made in house; host or cells: Escherichia coli BL21(DE3) with pSUABC; conditions: for Type of inhibition of TGR: reciprocal plots, TrxR and GR activities
Description: The inhibitory constants (K i) were determined using Equation 1 [21]: [drawing 1] where v maxapp is the apparent v max at different inhibitor concentrations and corresponds to the value of the 1/v intercept on the reciprocal plot.
The apparent Vmax for various concentrations of inhibitors were used to calculate K i values. Concentrations of PAT are no drug (♦), 10 nM, 30 nM (▴), and 75 nM (×); and of OPZ are no drug (♦), 50 μM, 75 μM (▴), and 100 μM (×).

[11] = molecular target: T3, Human TrxR (Homo sapiens, UniProt Q16881); assay: Inhibition of human TrxR (DTNB/Trx); format: biochemical; conditions: 12.5 μM compound, 200 μM disulfide substrate, preincubation 60 min at 37 °C; read-out: Percent inhibition of Human TrxR
T3 sequence (Q16881 1-499 isoform Q16881-5): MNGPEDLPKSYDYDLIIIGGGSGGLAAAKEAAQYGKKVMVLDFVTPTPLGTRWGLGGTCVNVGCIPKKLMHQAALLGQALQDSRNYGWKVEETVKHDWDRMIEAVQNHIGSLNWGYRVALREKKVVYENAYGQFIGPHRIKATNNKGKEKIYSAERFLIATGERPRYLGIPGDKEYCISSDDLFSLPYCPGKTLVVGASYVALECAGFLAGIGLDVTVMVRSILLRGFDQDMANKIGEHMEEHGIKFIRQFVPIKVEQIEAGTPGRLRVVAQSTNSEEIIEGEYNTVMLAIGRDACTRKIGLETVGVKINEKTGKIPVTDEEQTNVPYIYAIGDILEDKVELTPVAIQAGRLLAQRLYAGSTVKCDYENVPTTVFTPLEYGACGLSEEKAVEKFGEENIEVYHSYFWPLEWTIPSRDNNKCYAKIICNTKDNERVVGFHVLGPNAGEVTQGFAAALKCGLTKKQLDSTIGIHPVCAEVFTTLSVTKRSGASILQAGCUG
Description: (§3) In order to assess the potential for inhibition of TGR we screened several structurally diverse series of compounds (Figure S1) known to act as inhibitors of disulfide reductases from various organisms.

[12] = molecular target: T2, Human GR; assay: Inhibition of human GR (GSSG); format: biochemical; conditions: 12.5 μM compound, 200 μM disulfide substrate, preincubation 60 min at 37 °C; read-out: Percent inhibition of Human GR
Description: as §3

[13] = molecular target: T1, S. mansoni TGR; conditions: rough estimation at low OPZ concentrations
Description: OPZ concentrations were 0 (•), 25 (□), 50 (♦), 75 (Δ), and 100 (▴) μM. All incubation mixtures included 2% final DMSO. […] The error bars in (B) and (D) represent ± the standard errors of the k obs values estimated separately at each inhibitor concentration, as obtained from nonlinear regression analysis.

[14] = substrate of TGR (20 nM), 25 °C, pH 7.4, 100 μM NADPH, ± SD

With `NC(=O)C1=CN([C@@H]2O[C@H](COP(=O)(O)OP(=O)(O)OC[C@H]3O[C@@H](n4cnc5c(N)ncnc54)[C@H](OP(=O)(O)O)[C@@H]3O)[C@@H](O)[C@H]2O)C=CC1` [NADPH] as the compound, how does the Km ([1]; read-out: Apparent Km, S. mansoni TGR) read?
The Km was 13.7 µM.

And the kcat ([1]; substrate of TGR (20 nM), 25 °C, pH 7.4, 100 μM NADPH)?
Its kcat is 20.1 s⁻¹.

What about the Km [1, 14] of the same compound?
The Km was 13.7 ± 2.4 µM.

What about the Vmax [1, 14] of the same compound?
Its Vmax is 25.1 ± 1.8 µM/min.

And the Km [2]?
The Km was 8.5 µM.

And the Km [3]?
Its Km is 10.7 µM.

And the Km [4]?
The Km was 19.6 µM.

What does the source list for `O.O.O.O=C([O-])[C@H]([O-])[C@@H]([O-])C(=O)[O-].O=C([O-])[C@H]([O-])[C@@H]([O-])C(=O)[O-].[K+].[K+].[Sb+3].[Sb+3]` [PAT, potassium antimonyl tartrate]?
IC50 [5]: 16000 nM; Differential in toxicity between adult worms and mammalian cells [6]: similarly large differential in toxicity; IC50 [7]: 51 nM; IC50 [8]: 37 nM; Activity of Enzyme (% of Uninhibited Enzyme) [9]: 0%; Ki ([10]; DTNB as substrate, read-out: Ki (± standard deviation), TrxR activity of TGR): 4.86 ± 0.46 nM; Ki ([10]; GSSG as substrate, read-out: Ki (± standard deviation), GR activity of TGR): 7.22 ± 4.96 nM; Type of inhibition of TGR [10]: noncompetitive

With `Cc1c(-c2cnccn2)ssc1=S` [OPZ, oltipraz] as the compound, how does the inhibition at 12.5 µM [11] read?
Its inhibition at 12.5 µM is 37%.

What about the inhibition at 12.5 µM [12] of the same compound?
The inhibition at 12.5 µM was 0%.

And the activity [9]?
The activity was 13%.

And the “k i, first-order rate constant for irreversible inactivation, GR assay” value [13]?
The value was roughly 0.04 min⁻¹.

And the “k i, first-order rate constant for irreversible inactivation, TrxR assay” value [13]?
Its value is roughly 0.06 min⁻¹.

And the Ki ([10]; Ki (± standard deviation), GR activity of TGR, GSSG as substrate)?
Its Ki is 33800 ± 6000 nM.

What about the Ki ([10]; Ki (± standard deviation), TrxR activity of TGR, DTNB as substrate) of the same compound?
The Ki was 18100 ± 1100 nM.

And the “Type of inhibition of TGR” value [10]?
Its value is “noncompetitive”.
